# Measurements reported in US4910214A, “Optical isomer of an imidazole derivative medetomidine as an alpha-2-receptor agonist” (Farmos Yhtyma Oy, priority 1987, dated 1990).
# pIC50: −log10 of the molar value. Read-outs that look alike come from different tables or passages of the source.
# What was measured:
# mice [1] = assay: Spontaneous motility (Animex-activity meter); format: in vivo; settings: Mus musculus, sc, 0.5 h; s.c.; 30 minutes before two-minute measuring period; read-out: ED50 in reducing spontaneous motility in mice
# [2] = molecular target: T1, presynaptic α2 -adrenoceptors (Mus musculus, UniProt Q01338); assay: α2-agonism in vitro, isolated electrically stimulated mouse vas deferens; format: cell-based; settings: for EC50: negative log of molar concentration producing 50 percent of maximal inhibition of electrically induced contractions, read-out: α2 -agonism in vitro (mouse vas deferens). pD2 (converted)
# T1 construct: isolated, electrically stimulated mouse was deferens preparation; from tissue; host or cells: mouse vas deferens
# T1 sequence (Q01338 1-465): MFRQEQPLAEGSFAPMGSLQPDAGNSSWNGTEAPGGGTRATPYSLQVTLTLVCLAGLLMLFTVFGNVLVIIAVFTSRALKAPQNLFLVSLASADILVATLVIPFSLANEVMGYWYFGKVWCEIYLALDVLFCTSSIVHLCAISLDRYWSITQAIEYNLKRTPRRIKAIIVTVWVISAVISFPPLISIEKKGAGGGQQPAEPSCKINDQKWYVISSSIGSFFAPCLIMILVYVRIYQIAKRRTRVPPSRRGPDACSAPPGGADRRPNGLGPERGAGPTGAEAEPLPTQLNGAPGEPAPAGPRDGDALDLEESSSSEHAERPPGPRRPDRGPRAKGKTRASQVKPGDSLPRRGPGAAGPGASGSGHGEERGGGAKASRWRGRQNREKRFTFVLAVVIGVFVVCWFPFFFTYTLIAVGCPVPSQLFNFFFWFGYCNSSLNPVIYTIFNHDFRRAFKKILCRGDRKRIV
# Description: α2 -agonism was determined by means of isolated, electrically stimulated mouse was deferens preparation (Marshall et al., Br. J. Pharmac. 62, 147-151, 1978). […] Results are shown in Table 1, where the α2 -agonist effect is presented as the pD2 -value (negative logarith of the molar concentration of the compound producing 50 percent of maximal inhibition.)
# α2 -receptors [3] = assay: biochemical; format: binding, rat; settings: ratio of 3H-prazosin IC50 to 3H-clonidine IC50
# From the text: (§1) The selectivity of the d-enantiomer as an α2 -agonist was studied in receptor binding experiments using rat brain membranes. […] 108, 163-9, 1985.
# α2 -receptors [4] = molecular target: T2, α2 -receptors (Rattus norvegicus, UniProt P22909); assay: biochemical; format: binding
# T2 construct: from tissue; host or cells: rat brain membranes
# T2 sequence (P22909 1-465): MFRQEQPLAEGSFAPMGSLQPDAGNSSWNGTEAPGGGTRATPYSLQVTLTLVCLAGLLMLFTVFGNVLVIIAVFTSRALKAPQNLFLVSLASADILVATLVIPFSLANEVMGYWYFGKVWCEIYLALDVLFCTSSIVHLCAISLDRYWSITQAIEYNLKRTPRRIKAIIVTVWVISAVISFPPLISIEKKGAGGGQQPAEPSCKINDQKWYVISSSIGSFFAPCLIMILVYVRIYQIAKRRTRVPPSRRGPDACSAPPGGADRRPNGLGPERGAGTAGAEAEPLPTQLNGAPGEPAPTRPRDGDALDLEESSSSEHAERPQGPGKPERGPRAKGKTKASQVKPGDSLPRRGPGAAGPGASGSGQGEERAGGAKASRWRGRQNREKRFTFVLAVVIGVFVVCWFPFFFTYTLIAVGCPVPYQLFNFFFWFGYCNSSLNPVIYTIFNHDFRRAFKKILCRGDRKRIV
# From the text: as §1
# α1 -receptors = assay: 3H-prazosin displacement, receptor binding in rat brain membranes
# From the text: as §1
# mice [5] = assay: Acetic acid-induced writhing test; format: in vivo; settings: Mus musculus, sc, 45 min before 1% acetic acid i.p.; writhes counted 25 min
# Description: The sedative-analgesic properties of the compounds were studied in the spontaneous motility and writhing-test in the mouse. Spontaneous motility of mice and rats was measured using the Animex-activity meter. The test compounds were administered i.p. 30 minutes before the measuring periods of two minutes. In the writhing test the compounds studied and saline were administered s.c. to […], and 45 min. later 1 ml of 1% acetic acid was administered i.p. The number of writhes was recorded in the following 25 min. period (Koster et al., Fred. Proc. 18: 412, 1959).
# rat [6] = assay: Elevated t-maze test, exploration of open and enclosed arms (anxiolytic effects); format: in vivo; settings: for Mean number of entries, closed / Mean number of entries, open / Mean number of entries, total / open/total entries: 5 minutes, n = 6
# Description: The anxiolytic effects of the compounds were studied using a method described by Handley and Mithoni: Naunyn-Schmiedeb, Arch. Pharmacol. 327, 1-5, 1984. In this test the manner of exploration of open and enclosed arms in an elevated t-maze by a rat is examined. It has been shown that anxiolytic drugs increase the relative exploration of open arms. A rat is placed in the center of the t-maze and the number of open and enclosed entries is recorded during 5 minutes.
# rat [7] = settings: for CSF MHPG-SO4 (% of control): 4 h after adm.
# From the text: It is well known that anxiety states connected to withdrawal symptoms are due to noradrenergic hyperactivity.
# Sprague-Dawley rats = settings: anesthetized rats; for Decrease in BP / Decrease in heart rate: femoral vein
# Description: After this, the femoral artery was connected by a polyethylene tube to a blood pressure transducer. The test substance was then injected into the femoral vein and the blood pressure and the pulse frequency were registered with a recorder.
structure (smiles),measurement,setting,value
Cc1cccc([C@@H](C)c2cnc[nH]2)c1C [1-enantiomer],ED50,mice [1],> 10 mg/kg
same,EC50,[2],1000 nM
same,type of agonism (mouse vas deferens),[2]; remark in pD2 cell,partial agonist
same,α2 /α1 -selectivity,α2 -receptors [3],4129
same,pIC50,α2 -receptors [4],7.34
same,pIC50,α1 -receptors,3.72
same,ED50,mice [5],> 10 mg/kg
"CN1C(=O)CN=C(c2ccccc2)c2cc(Cl)ccc21 [diazepam, reference compound]","Mean number of entries, closed",rat [6]; dose 1 mg/kg,10.5
same,"Mean number of entries, open",rat [6]; dose 1 mg/kg,5.2
same,"Mean number of entries, total",rat [6]; dose 1 mg/kg,15.7
same,open/total entries,rat [6]; dose 1 mg/kg,0.33
Cc1cccc([C@H](C)c2cnc[nH]2)c1C [d-enantiomer],ED50,mice [1],0.02 mg/kg
same,EC50,[2],0.501 nM
same,effect on noradrenaline release (in words),rat [7]; central and peripheral nervous systems,able to reduce noradrenaline release
same,CSF MHPG-SO4 (% of control),rat [7]; dose 3 μg/kg,-10 % of control
same,CSF MHPG-SO4 (% of control),rat [7]; dose 10 μg/kg,-20 % of control
same,CSF MHPG-SO4 (% of control),rat [7]; dose 30 μg/kg,-30 % of control
same,CSF MHPG-SO4 (% of control),rat [7]; dose 100 μg/kg,-65 % of control
same,"Mean number of entries, closed",rat [6]; dose 0.0003 mg/kg,10.6
same,"Mean number of entries, open",rat [6]; dose 0.0003 mg/kg,4.8
same,"Mean number of entries, total",rat [6]; dose 0.0003 mg/kg,14.0
same,open/total entries,rat [6]; dose 0.0003 mg/kg,0.20
same,"Mean number of entries, closed",rat [6]; dose 0.001 mg/kg,10.6
same,"Mean number of entries, open",rat [6]; dose 0.001 mg/kg,3.2
same,"Mean number of entries, total",rat [6]; dose 0.001 mg/kg,13.8
same,open/total entries,rat [6]; dose 0.001 mg/kg,0.23
same,"Mean number of entries, closed",rat [6]; dose 0.003 mg/kg,9.5
same,"Mean number of entries, open",rat [6]; dose 0.003 mg/kg,4.0
same,"Mean number of entries, total",rat [6]; dose 0.003 mg/kg,13.5
same,open/total entries,rat [6]; dose 0.003 mg/kg,0.29
same,"Mean number of entries, closed",rat [6]; dose 0.01 mg/kg,8.8
same,"Mean number of entries, open",rat [6]; dose 0.01 mg/kg,5.8
same,"Mean number of entries, total",rat [6]; dose 0.01 mg/kg,14.6
same,open/total entries,rat [6]; dose 0.01 mg/kg,0.39
same,"Mean number of entries, closed",rat [6]; dose 0.03 mg/kg,3.0
same,"Mean number of entries, open",rat [6]; dose 0.03 mg/kg,2.5
same,"Mean number of entries, total",rat [6]; dose 0.03 mg/kg,5.5
same,open/total entries,rat [6]; dose 0.03 mg/kg,0.45
same,anxiolytic effect in the elevated t-maze test (in words),rat [6]; summary of Table 5,anxiolytic profile
same,α2 /α1 -selectivity,α2 -receptors [3],45849
same,pIC50,α2 -receptors [4],8.92
same,pIC50,α1 -receptors,4.26
same,effect on blood pressure and heart rate (in words),Sprague-Dawley rats; summary of Table 7,clear anti-hypertensive and bradycardia effects
same,Decrease in BP,Sprague-Dawley rats; dose 0.001 mg/kg,-8%
same,Decrease in heart rate,Sprague-Dawley rats; dose 0.001 mg/kg,-21%
same,Decrease in BP,Sprague-Dawley rats; dose 0.003 mg/kg,-23%
same,Decrease in heart rate,Sprague-Dawley rats; dose 0.003 mg/kg,-40%
same,Decrease in BP,Sprague-Dawley rats; dose 0.01 mg/kg,-43%
same,Decrease in heart rate,Sprague-Dawley rats; dose 0.01 mg/kg,-47%
same,Decrease in BP,Sprague-Dawley rats; dose 0.03 mg/kg,-45%
same,Decrease in heart rate,Sprague-Dawley rats; dose 0.03 mg/kg,-48%
same,Decrease in BP,Sprague-Dawley rats; dose 0.1 mg/kg,-45%
same,Decrease in heart rate,Sprague-Dawley rats; dose 0.1 mg/kg,-50%
same,ED50,mice [5],0.01 mg/kg
Cc1cccc(Cc2c[nH]cn2)c1C [detomidine],ED50,mice [1],0.3 mg/kg
same,EC50,[2],3.16 nM
same,pIC50,α2 -receptors [4],8.43
same,ED50,mice [5],0.02 mg/kg
"Clc1cccc(Cl)c1N=C1NCCN1 [clonidine, reference compound]",ED50,mice [1],0.3 mg/kg
same,EC50,[2],3.16 nM
same,pIC50,α1 -receptors,5.21
same,ED50,mice [5],0.03 mg/kg
Cc1cccc(C(C)c2cnc[nH]2)c1C (racemic) [medetomidine],ED50,mice [1],0.05 mg/kg
same,EC50,[2],1 nM
same,α2 /α1 -selectivity,α2 -receptors [3],5060
same,pIC50,α2 -receptors [4],8.48
same,pIC50,α1 -receptors,4.78
same,ED50,mice [5],0.02 mg/kg
